Assay results from PMC9313597, “In Vitro and in Silico Analysis of Phytochemicals From Fallopia dentatoalata as Dual Functional Cholinesterase Inhibitors for the Treatment of Alzheimer’s Disease” (Frontiers in Pharmacology, 2022).
Several values for one entry are separate records, joined by “and”; a condition that tells them apart may be missing. Equal values may be shown once. Read-outs that look alike come from different tables or passages of the source.

Legend:
BuChE [1] = target: T1, BuChE (Equus caballus, UniProt P81908); test: biochemical; format: biochemical; details: for inhibition at 100 µM: read-out: Inhibition of BuChE; for IC50: 0.05 Unit/mL enzyme, pH 7.4, 37°C, 30 min, triplicate, mean ± SEM
T1 construct: purchased Sigma-Aldrich Co. (St. Louis, Missouri, United States) C1057
Description: (§1) All HPLC solvents were purchased from Guangdong Guanghua Sci-Tech Co. Ltd. (Guangzhou, China). […] All chemicals and solvents used in column chromatography and assays were acquired from commercial sources.
(§2) 25 µL of 1 mM DTNB [5,5′-dithiobis (2-nitrobenzoic acide)] and 25 µL of 5 mM substrate, acetylthiocholine iodide (A5751), and butyrylthiocholine iodide (B3253) were sequentially added to wells in the plate. […] The inhibition ratio was calculated using the equation: Inhibitory activity(%)=[(ΔC-ΔI)/ΔC]×100 Where C and I are the intensity of control and inhibitor after 20 min, respectively.
(§3) Compounds were first evaluated in vitro for their inhibitory activities against AChE and BuChE at a concentration of 100 µM.

AChE [2] = target: T2, AChE (Electrophorus electricus, UniProt O42275); test: biochemical; details: for inhibition at 100 µM: read-out: Inhibition of AChE; for IC50: 0.05 Unit/mL enzyme, pH 7.4, 37°C, 30 min, triplicate, mean ± SEM
T2 construct: purchased Sigma-Aldrich Co. (St. Louis, Missouri, United States) C3389
Description: as §1, §2, §3

BuChE [3] = target: T1, BuChE; test: Enzyme kinetics on BuChE (Lineweaver-Burk and Dixon plots); format: biochemical; details: for Ki: Dixon plots, read-out: BuChE K i; for BuChE Inhibition type: Lineweaver-Burk plots, compound 2–90 µM, substrate 0.07–5 mM
Description: (§4) […]. This was achieved by performing enzyme kinetic studies on AChE/BuChE in the presence of different concentrations of compounds 30–34 (2–90 µM) at various steady-state substrate concentrations (0.07–5 mM). The interactions between compounds and cholinesterase are represented using classic double-reciprocal Lineweaver-Burk and Dixon plots ([Lineweaver and Burk, 1934]; [Dixon, 1953]). […] The resulting linear equations for compounds 30–34 with BuChE led to a series of lines with different slopes that crossed at similar intercepts on the vertical axis and different points on the horizontal axis.

AChE [4] = target: T2, AChE; test: Enzyme kinetics on AChE (Lineweaver-Burk and Dixon plots); format: biochemical; details: for Ki: Dixon plots, read-out: AChE K i; for AChE Inhibition type: Lineweaver-Burk plots, compound 2–90 µM, substrate 0.07–5 mM
Description: as §4

T2 sequence (O42275 24-633): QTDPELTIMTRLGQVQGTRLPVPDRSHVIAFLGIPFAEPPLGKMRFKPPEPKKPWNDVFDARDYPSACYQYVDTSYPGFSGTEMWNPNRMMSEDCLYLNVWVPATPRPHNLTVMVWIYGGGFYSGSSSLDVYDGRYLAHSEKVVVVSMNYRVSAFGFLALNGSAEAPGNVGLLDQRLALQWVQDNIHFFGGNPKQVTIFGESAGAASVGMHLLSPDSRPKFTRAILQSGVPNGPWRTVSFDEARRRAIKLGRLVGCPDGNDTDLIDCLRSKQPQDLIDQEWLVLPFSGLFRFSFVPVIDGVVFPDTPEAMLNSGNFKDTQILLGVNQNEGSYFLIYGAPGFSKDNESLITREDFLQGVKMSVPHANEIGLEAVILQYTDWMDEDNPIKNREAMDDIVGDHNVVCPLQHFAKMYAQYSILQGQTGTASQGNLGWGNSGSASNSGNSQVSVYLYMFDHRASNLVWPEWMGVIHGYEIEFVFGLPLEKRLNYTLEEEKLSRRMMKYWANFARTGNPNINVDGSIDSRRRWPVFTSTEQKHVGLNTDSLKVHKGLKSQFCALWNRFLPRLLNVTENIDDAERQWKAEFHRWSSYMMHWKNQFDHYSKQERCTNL
T1 sequence (P81908 whole entry): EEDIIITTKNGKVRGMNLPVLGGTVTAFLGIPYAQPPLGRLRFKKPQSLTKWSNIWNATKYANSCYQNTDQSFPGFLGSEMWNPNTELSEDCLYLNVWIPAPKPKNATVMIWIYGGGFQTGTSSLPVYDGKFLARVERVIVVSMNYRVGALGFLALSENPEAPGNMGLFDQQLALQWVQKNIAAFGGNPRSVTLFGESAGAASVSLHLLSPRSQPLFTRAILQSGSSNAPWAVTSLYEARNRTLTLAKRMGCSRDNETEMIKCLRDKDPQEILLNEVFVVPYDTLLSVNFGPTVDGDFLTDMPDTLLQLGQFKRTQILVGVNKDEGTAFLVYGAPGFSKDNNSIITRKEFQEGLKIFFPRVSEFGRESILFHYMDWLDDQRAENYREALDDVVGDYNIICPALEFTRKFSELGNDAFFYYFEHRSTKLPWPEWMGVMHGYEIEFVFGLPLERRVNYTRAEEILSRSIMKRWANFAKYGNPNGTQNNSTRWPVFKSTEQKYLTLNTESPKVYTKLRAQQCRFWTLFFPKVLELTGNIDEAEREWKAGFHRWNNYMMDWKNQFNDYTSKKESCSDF

## O=c1cc(-c2ccc(O)cc2)oc2cc(O)cc(O)c12 [Compound 1, apigenin]
BuChE [1]; at 100 µM
  inhibition at 100 µM: > 50%
AChE [2]
  inhibition at 100 µM: > 50%

## O=c1c(O[C@@H]2O[C@H](CO)[C@@H](O)[C@H](O)[C@H]2O)c(-c2ccc(O)cc2)oc2cc(O)cc(O)c12 [Compound 5, astragalin]
BuChE [1]
  inhibition at 100 µM: > 50%
AChE [2]
  inhibition at 100 µM: > 50%

## Oc1cc(O)c2c(c1)O[C@H](c1ccc(O)c(O)c1)[C@H](O)C2 [Compound 19, (-)-epicatechin]
BuChE [1]; at 100 µM
  inhibition at 100 µM: > 50%
AChE [2]; at 100 µM
  inhibition at 100 µM: > 50%

## COc1cc(/C=C/C(=O)OC[C@H]2O[C@@](COC(=O)/C=C/c3ccc(O)c(OC)c3)(O[C@H]3O[C@H](COC(=O)/C=C/c4ccc(O)c(OC)c4)[C@@H](O)[C@H](O)[C@H]3O)[C@@H](OC(=O)/C=C/c3ccc(O)cc3)[C@@H]2O)ccc1O [Compound 30, lapathoside B]
BuChE [1]
  IC50: 10.9 ± 4.9 µM
BuChE [3]
  Ki: ~12.1 µM
  BuChE Inhibition type: Competitive
AChE [2]
  IC50: > 100 µM

## COc1cc(/C=C/C(=O)OC[C@H]2O[C@H](O[C@]3(COC(=O)/C=C/c4ccc(O)cc4)O[C@H](COC(=O)/C=C/c4ccc(O)cc4)[C@@H](O)[C@@H]3OC(=O)/C=C/c3ccc(O)cc3)[C@H](O)[C@@H](O)[C@@H]2O)ccc1O [Compound 31, vanicoside B]
BuChE [1]
  IC50: 7.5 ± 4.1 µM
BuChE [1]; from IC50 values (7.5 vs 17.1 µM)
  BuChE inhibitory activity relative to Compound 34: over 2 fold
AChE [4]
  Ki: ~30 µM
  AChE Inhibition type: non-competitive inhibitors
BuChE [3]
  Ki: ~3.5 µM
  BuChE Inhibition type: Competitive
AChE [2]
  IC50: 32.3 ± 4.7 µM
AChE [2]; at 100 µM
  inhibition at 100 µM: > 60%

## COc1cc(/C=C/C(=O)OC[C@H]2O[C@H](O[C@]3(COC(=O)/C=C/c4ccc(O)c(OC)c4)O[C@H](COC(=O)/C=C/c4ccc(O)cc4)[C@@H](O)[C@@H]3OC(=O)/C=C/c3ccc(O)cc3)[C@H](O)[C@@H](O)[C@@H]2O)ccc1O [Compound 32, lapathoside A]
BuChE [1]
  IC50: 2.7 ± 1.7 µM
AChE [4]
  Ki: ~34.4 µM
  AChE Inhibition type: non-competitive inhibitors
BuChE [3]
  Ki: ~1.8 µM
  BuChE Inhibition type: Competitive
AChE [2]
  IC50: 30.6 ± 4.7 µM
AChE [2]; at 100 µM
  inhibition at 100 µM: > 60%

## smilaside G [Compound 34]
BuChE [1]
  IC50: 17.1 ± 3.4 µM
BuChE [3]
  Ki: 17.5 µM and ~17.5 µM
  BuChE Inhibition type: Competitive
AChE [2]
  IC50: > 100 µM

## smilaside J [Compound 33]
BuChE [1]
  IC50: 10.1 ± 4.6 µM
BuChE [3]
  Ki: ~8.5 µM
  BuChE Inhibition type: Competitive
AChE [2]
  IC50: 56 ± 2.4 µM
